13 molecules from patent US6689357B2, “Non-obligate predatory bacterium Burkholderia casidae and uses thereof” (Virginia Tech Intellectual Properties, Inc., priority 1997, dated 2004) can be followed below.

≈ marks a conversion by molar mass, not a printed value. Bounds are passed on as bounds.

For this assay, the system named is B. casidae strain 2.2N. In words: microbe, parasite or virus in culture. In kind it is cell-based, Burkholderia casidae. As to conditions: for MIC: Burkholderia, 2.2N, read-out: Minimal Inhibitory Concentration; for strain 2.2N resistant or susceptible to the antibiotic: Sceptor Pseudomonas/Resistant MIC Panel; for Minimal Inhibitory Concentration: against B. casidae strain 2.2N.

Turning to `CN(C)[C@@H]1C(O)=C(C(N)=O)C(=O)[C@@]2(O)C(O)=C3C(=O)c4c(O)cccc4[C@@](C)(O)[C@H]3C[C@@H]12` [Tetracycline], the MIC is above 8 µg/mL.
Take `CC(C)(O/N=C(\C(=O)N[C@@H]1C(=O)N2C(C(=O)[O-])=C(C[n+]3ccccc3)CS[C@H]12)c1csc(N)n1)C(=O)O` [Ceftazimine]: the “strain 2.2N resistant or susceptible to the antibiotic” value (“strain 2.2N resistant or susceptible” for short) is on record as “susceptible” and the “Minimal Inhibitory Concentration” value is 8 micrograms/ml.
Turning to `O=C(O)c1cn(C2CC2)c2cc(N3CCNCC3)c(F)cc2c1=O` [ciprofloxacin], the “strain 2.2N resistant or susceptible” value is on record as “susceptible”.
Consider `CCN1CCN(C(=O)N[C@@H](C(=O)N[C@@H]2C(=O)N3C(C(=O)O)=C(CSc4nnnn4C)CS[C@H]23)c2ccc(O)cc2)C(=O)C1=O` [Cefoperazone], for which the MIC is above 16 µg/mL and the “strain 2.2N resistant or susceptible” value was “resistant”.
For the molecule `CO/N=C(\C(=O)N[C@@H]1C(=O)N2C(C(=O)O)=C(CSc3nc(=O)c(=O)[nH]n3C)CS[C@H]12)c1csc(N)n1` [Ceftriaxone], the MIC was 128 µg/mL (≈ 231 µM) and the “strain 2.2N resistant or susceptible” value is given as “susceptible”.
For the molecule `C[C@@H](O)[C@H]1C(=O)N2C(C(=O)O)=C(SCCN=CN)C[C@H]12` [Imipenem], the MIC is 16 µg/mL (≈ 53.4 µM).
As to Trimethoprim/Sulfamethoxazole, the “strain 2.2N resistant or susceptible” value is reported as “susceptible” and the “Minimal Inhibitory Concentration” value was 4/76.
With Gentamycin, the “strain 2.2N resistant or susceptible” value is given as “resistant” and the “Minimal Inhibitory Concentration” value is reported as above 16 micrograms/ml.
For the molecule `NCC[C@H](O)C(=O)N[C@@H]1C[C@H](N)[C@@H](O[C@H]2O[C@H](CN)[C@@H](O)[C@H](O)[C@H]2O)[C@H](O)[C@H]1O[C@H]1O[C@H](CO)[C@@H](O)[C@H](N)[C@H]1O` [Amikacin], the MIC was above 64 µg/mL and the “strain 2.2N resistant or susceptible” value was “resistant”.
As to Tricarcillin/Clavulinic Acid, the “strain 2.2N resistant or susceptible” value is recorded as “resistant” and the “Minimal Inhibitory Concentration” value is reported as >128/2.
As to `CO/N=C(\C(=O)N[C@@H]1C(=O)N2C(C(=O)O)=CCS[C@H]12)c1csc(N)n1` [Ceftizoxime], the MIC worked out at 16 µg/mL (≈ 41.7 µM) and the “strain 2.2N resistant or susceptible” value is given as “susceptible”.
On to `CO/N=C(\C(=O)N[C@@H]1C(=O)N2C(C(=O)O)=C(COC(C)=O)CS[C@H]12)c1csc(N)n1` [Cefotaxime], for which the MIC was 64 µg/mL (≈ 141 µM) and the “strain 2.2N resistant or susceptible” value is “susceptible”.
`NC[C@H]1O[C@H](O[C@H]2[C@H](O)[C@@H](O[C@H]3O[C@H](CO)[C@@H](O)[C@H](N)[C@H]3O)[C@H](N)C[C@@H]2N)[C@H](N)C[C@@H]1O` [Tobramycin]: the MIC is above 16 µg/mL and the “strain 2.2N resistant or susceptible” value is “resistant”.
